Changes are numbered by the printed parent chain. Where a SMILES comes first, the peptide text is derived from it. The star is where a group is joined. Cbz = O=C(OCc1ccccc1)*

We go through five molecules from patent US9987256B2, “CFTR corrector for the treatment of genetic disorders affecting striated muscle” (UNIVERSITA' DEGLI STUDI DI PADOVA, priority 2012, dated 2018).

In one experiment the test system is D307H CASQ2 mutant. As to conditions: CASQ2 D307H/D307H knock in mouse, systemic administration; cited from earlier work.
Experiment [1] addresses T1, R98H mutant of alpha-sarcoglycan (Homo sapiens, UniProt Q16586, R98H).
T1 construct: expressed in transfected cells; host or cells: HEK293
T1 sequence (Q16586 24-387 R98H): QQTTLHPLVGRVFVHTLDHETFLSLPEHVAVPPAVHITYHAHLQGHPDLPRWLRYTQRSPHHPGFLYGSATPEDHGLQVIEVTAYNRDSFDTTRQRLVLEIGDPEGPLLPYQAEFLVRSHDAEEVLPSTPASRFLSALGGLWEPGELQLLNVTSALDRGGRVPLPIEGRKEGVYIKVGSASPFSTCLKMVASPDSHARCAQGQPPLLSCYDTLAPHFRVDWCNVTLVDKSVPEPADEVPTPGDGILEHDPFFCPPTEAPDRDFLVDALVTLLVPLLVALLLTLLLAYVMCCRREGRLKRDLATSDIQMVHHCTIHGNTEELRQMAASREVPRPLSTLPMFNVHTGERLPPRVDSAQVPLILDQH
Kind of experiment: Western blot rescue of R98H mutant of alpha-sarcoglycan in HEK293 cell model. Format: cell-based. The note with it: FIG. 1; HEK293, 24 hours; C 5 μM, B 10 μM, E 10 μM, F 10 μM, A 2 μM, D 10 μM; relative to R98H cells treated with DMSO. On the procedure: HEK293 cells expressing different α-SG mutants have been treated with the Compounds A, B, C, D, E, F, H, I, Q, R, S and T according to protocols developed in CF studies [Loo and Clarke 2011; Becq et al 2011, Pedemonte et al 2005; Wang et al 2006]. Concentration and time-dependent recovery of treated mutants have been evaluated by Western blotting. The proteasome inhibitor MG132, at the concentration of 10 μM, or DMSO at 1‰ concentration, have been used as positive and negative control, respectively.
In FIG. 1 the result obtained by treating cells expressing the R98H mutant of α-SG for 24 hours with Compound C 5 μM, Compound B 10 μM, Compound E 10 μM, Compound F 10 μM, Compound A 2 μM, Compound D 10 μM are shown. At the end of treatments, cells were lysed and total proteins resolved by SDS-PAGE. Western blotting has been performed by using α-SG specific antibody and β-actin specific antibody, used to normalize loaded proteins (in FIG. 1, upper panel, a representative experiment is shown). The expression of α-SG in different samples has been determined by densitometric analysis of the western blotting experiments and indicated as percentage of the protein present in cells expressing the R98H mutant treated with DMSO (negative control).
In FIG. 4 the result obtained by treating cells expressing the R98H mutant of α-SG for 24 hours with either Compound H 15 μM, Compound I 10 μM, Compound T 15 μM, Compound A 2 μM, or DMSO at 1‰ concentration, used as negative control, are shown. Cells expressing the wild type form of α-sarcoglycan have been used for comparison. At the end of treatments, cells were lysed and total proteins resolved by SDS-PAGE. Western blotting has been performed by using α-SG specific antibody and β-actin specific antibody, used to normalize loaded proteins (in upper panel of FIG. 4, a representative experiment is shown). The expression of α-SG in different samples has been determined by densitometric analysis of the western blotting experiments and indicated as percentage of the protein present in cells expressing the wild type form of α-sarcoglycan. […] The compounds tested induced the recovery of the R98H mutant to levels that in some cases were even greater than those present in HEK cells expressing the wild type protein.
(§1) In FIG. 5 the result obtained by treating cells expressing the R98H mutant of α-SG for 24 hours with either increasing concentration of Compound R (1, 2.5, 5 μM) or DMSO at 1‰ concentration, used as negative control, are shown. Cells expressing the wild type form of α-sarcoglycan have been used for comparison. At the end of treatments, cells were lysed and total proteins resolved by SDS-PAGE. Western blotting has been performed by using α-SG specific antibody and β-actin specific antibody, used to normalize loaded proteins (in upper panel of FIG. 5, a representative experiment is shown). The expression of α-SG in different samples has been determined by densitometric analysis of western blotting experiments and indicated as percentage of the protein present in cells expressing the wild type form of α-sarcoglycan.
as §1, with “6” for “5”, “Q (5, 10 μM), increasing concentration of Compound S (10, 15” for “R (1, 2.5, 5”, “1% o” for “1‰”, “6,” for “5,”
On the technique in general: Immunoblotting shows a protein as a band on a membrane.

A further experiment concerns the target T2, R164H mutant of SERCA1 (Bos taurus, UniProt Q0VCY0, R164H).
T2 construct: expressed in transfected cells; host or cells: HEK 293
Kind of experiment: Western blot rescue of R164H mutant of SERCA1 in HEK293 cells. Format: cell-based, bovine. As to conditions: FIG. 3; HEK293, 24 hours; C 5 μM, B 10 μM, E 10 μM, F 10 μM, A 2 μM, D 10 μM; relative to wild type. On the procedure: In FIG. 3 are reported the results obtained with HEK 293 cells expressing the R164H mutant of SERCA1 treated for 24 hours with either Compound C 5 μM, Compound B 10 μM, Compound E 10 μM, compound F 10 μM, Compound A 2 μM, compound D 10 μM, MG132 (proteasome inhibitor) 10 μM, used as positive control or the vehicle DMSO at 1‰ concentration, used as negative control. At the end of treatments, cells were lysed and total protein resolved by SDS-PAGE. Western blotting analysis has been performed by using SERCA1 specific antibody and β-actin specific antibody, to normalize loaded proteins. In the upper panel of FIG. 3 is reported a representative Western blotting experiment. The expression of SERCA1 in different samples has been determined by densitometric analysis and indicated as percentage of SERCA 1 content present in wild type expressing cells treated with DMSO.
In FIG. 10 is reported the content of SERCA1 protein present in HEK 293 cells transfected with the R164H mutant of SERCA1 and treated for 24 hours with either Compound H 15 μM, Compound I 10 μM, compound Q 10 μM, Compound R 5 μM, Compound S 15 μM, Compound T 15 μM or the vehicle DMSO at 1‰ concentration, used as negative control. Cells expressing the wild type form of SERCA1 have also been used for comparison. At the end of treatments, cells were lysed and total protein resolved by SDS-PAGE. Western blotting analysis has been performed by using SERCA1 specific antibody and β-actin specific antibody, to normalize loaded proteins. The expression of SERCA1 in different samples has been determined by densitometric analysis and indicated as percentage of SERCA 1 content present in wild type expressing cells. The graph of FIG. 10 reports the average values (+/− standard error) of at least three independent experiments.

Experiment [2] addresses T3, V247M mutant of alpha-sarcoglycan (Homo sapiens, UniProt Q16586, V247M).
T3 construct: expressed in transfected cells; host or cells: HEK 293
T3 sequence (Q16586 24-387 V247M): T1 sequence (Q16586 24-387 R98H) with H75R, V224M
In words: Confocal immunofluorescence, membrane localization of V247M alpha-sarcoglycan in HEK293 cells. The note with it: FIG. 2; HEK293, 24 hours; E 10 μM, D 10 μM, MG132 positive control; not permeabilized cells. Format: cell-based. On the procedure: The cellular localization of either the V247M or R98H mutants, upon corrector treatments, has been verified by confocal immunofluorescence.
In the experiment reported in FIG. 2, HEK 293 cells expressing the V247M mutant have been treated for 24 hours with either Compound E (10 μM) or Compound D (10 μM), MG132 (positive control) or DMSO at 1‰ concentration (negative control). At the end of treatments, not permeabilized cells were incubated with a monoclonal antibody specific for an extracellular epitope of α-sarcoglycan in order to mark only the membrane resident α-sarcoglycan. By comparison, cells expressing the wild type form of α-sarcoglycan have also been used.

T2 sequence (Q0VCY0 whole entry R164H): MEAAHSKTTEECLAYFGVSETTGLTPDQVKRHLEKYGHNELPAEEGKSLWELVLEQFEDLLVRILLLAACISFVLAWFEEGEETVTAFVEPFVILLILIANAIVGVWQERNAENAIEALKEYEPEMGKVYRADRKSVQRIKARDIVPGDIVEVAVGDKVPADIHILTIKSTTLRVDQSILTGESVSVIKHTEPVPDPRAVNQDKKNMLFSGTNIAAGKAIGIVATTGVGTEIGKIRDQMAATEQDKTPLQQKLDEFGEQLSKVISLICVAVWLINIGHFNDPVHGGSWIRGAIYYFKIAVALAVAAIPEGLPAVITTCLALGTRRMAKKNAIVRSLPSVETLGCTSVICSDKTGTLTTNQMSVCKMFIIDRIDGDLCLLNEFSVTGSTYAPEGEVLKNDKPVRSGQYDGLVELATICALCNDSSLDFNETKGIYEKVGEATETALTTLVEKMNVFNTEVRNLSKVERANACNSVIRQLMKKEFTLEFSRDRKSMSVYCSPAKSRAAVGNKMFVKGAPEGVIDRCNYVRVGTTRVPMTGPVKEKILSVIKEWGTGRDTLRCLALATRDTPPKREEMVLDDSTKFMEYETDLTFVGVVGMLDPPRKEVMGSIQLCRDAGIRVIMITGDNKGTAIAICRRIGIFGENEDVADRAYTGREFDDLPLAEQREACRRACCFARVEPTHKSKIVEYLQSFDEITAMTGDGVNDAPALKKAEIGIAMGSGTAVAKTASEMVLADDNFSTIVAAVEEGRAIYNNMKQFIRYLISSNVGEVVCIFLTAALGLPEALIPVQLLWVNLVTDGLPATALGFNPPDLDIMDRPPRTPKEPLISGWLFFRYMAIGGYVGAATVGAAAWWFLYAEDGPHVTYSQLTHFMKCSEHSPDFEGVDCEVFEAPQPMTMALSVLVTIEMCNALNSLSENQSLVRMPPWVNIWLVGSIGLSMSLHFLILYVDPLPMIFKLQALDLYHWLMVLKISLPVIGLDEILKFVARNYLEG

Consider `CC(C)C[C@H](NC(=O)[C@H](Cc1ccccc1)NC(=O)c1cnccn1)B(O)O` [Velcade, bortezomib], for which, in the experiment with D307H CASQ2 mutant, the “cardiac arrhythmia developed as consequence of CASQ2 mutant degradation” value is “can be counteracted” and the “partial rescue of the mutant CASQ2, increase over not treated mice” value is reported as 20%.

`O=C(Nc1ncc(C(c2ccccc2Cl)N2CC[C@@H](O)C2)s1)C1(c2ccc3c(c2)OCO3)CC1` (stereo in doubt) [Compound D, 1-(benzo[d][1,3]dioxol-5-yl)-N-(5-((S)-(2-chlorophenyl) ((R)-3-hydroxypyrrolidin-1-yl)methyl)thiazol-2-yl)cyclopropanecarboxamide]: in experiment [1], the “alpha-sarcoglycan protein level (western blot, densitometry), rescue of R98H mutant” value (“alpha-sarcoglycan protein level” below) is “promote the rescue”. Also, the “SERCA1 protein level (western blot, densitometry), rescue of R164H mutant” value (shortened to “SERCA1 protein level”) on R164H mutant of SERCA1 is recorded as “promote the rescue”. Moreover, the “plasma membrane localization of V247M alpha-sarcoglycan mutant” value in experiment [2] was “promoted the correct plasma membrane localization”.

For the molecule `CC(c1nc(N2CCCCC2)c2ccccc2n1)N1CCN(S(=O)(=O)c2ccc(Cl)cc2)CC1` (stereo not shown) [Compound C, 2-{1-[4-(4-Chloro-benzensulfonyl)-piperazin-1-yl]ethyl}-4-piperidin-1-yl-quinazoline], the “alpha-sarcoglycan protein level” value in experiment [1] is “promote the rescue”. Also, the “SERCA1 protein level” value on R164H mutant of SERCA1 is “promote the rescue”.

For `COc1ccc(S(=O)(=O)N2CCN(C(C)c3nc(OC4CCCCC4)c4ccccc4n3)CC2)cc1` (stereo not shown) [Compound B, 4-Cyclohexyloxy-2-{1-[4-(4-methoxy-benzensulfonyl)-piperazin-1-yl]-ethyl}-quinazoline], the “alpha-sarcoglycan protein level” value in experiment [1] is reported as “promote the rescue”. The “SERCA1 protein level” value on R164H mutant of SERCA1 is listed as “promote the rescue”.

With `CC(C)C[C@@H](C=O)NC(=O)[C@H](CC(C)C)NC(=O)[C@H](CC(C)C)NC(=O)OCc1ccccc1` [MG132, reference compound] (Cbz-Leu-Leu-Leu-aldehyde), the “plasma membrane localization of V247M alpha-sarcoglycan mutant” value in experiment [2] was “promoted V247M membrane localization”.
